No end group written: not given here.

For data set [1], the system named is CRAB 2210186. Description: Thigh infection mouse model. The class given is in vivo, BALB/c mice. To be noted: neutropenic mice, ~1 × 10^6 CFU in thigh, i.p. at 1, 3, 5, 7 h post-infection (PL-15 10 × MIC, 100 µL; polymyxin B 20,000–25,000 U kg^−1 day^−1), n = 8. The source says: The WHO has classified CRAB as a “Critical Priority” pathogen in its Priority Pathogens List, recognizing it as a predominant causative agent of hospital-acquired infections ([2]). This classification reflects CRAB’s global dissemination, high mortality rates, and extreme resistance profiles. Given this critical situation, a thigh infection model was employed to evaluate the in vivo therapeutic efficacy of PL-15 against CRAB. To establish the mouse thigh infection model, mice were pre-treated intraperitoneally with cyclophosphamide 4 days and 1 day prior to bacterial inoculation to induce neutropenia, administered at doses of 150 mg kg^−1 and 100 mg kg^−1, respectively ([51]). Each mouse was then injected with approximately 10^6 colony-forming unit (CFU) of CRAB in the thigh tissue, followed by four intraperitoneal injections of PL-15, polymyxin B, or phosphate-buffered saline (PBS) within 24 h of infection (Fig. 3a).
All animal experiments were performed according to the “Principles of Laboratory Animal Care” (NIH publication No. 86-23, revised 1985) and approved by the Animal Care and Use Committee of Shandong University (LL20240622, Jinan, China). Five-week-old male BALB/c mice were purchased from Beijing Vital River Laboratory Animal Technology Co., Ltd. (Beijing, China) and kept under a 12-hour light/12-hour dark cycle, humidity of 50%, and temperature of 22°C in standard specific pathogen-free individually vented cages.
To establish the mouse thigh infection model, mice were injected intraperitoneally with cyclophosphamide 4 d and 1 d before bacterial administration, at concentrations of 150 and 100 mg kg^−1, respectively, to induce neutropenia ([51]). CRAB 2210186 cells were suspended in sterile PBS, adjusted to a concentration of ~1 × 10^6 CFU per infection site and injected into the right thighs of eight mice per treatment group. PL-15 (10 × MIC, 100 µL), polymyxin B (20,000–25,000 U kg^−1 day^−1) or PBS were administered intraperitoneally at 1, 3, 5, and 7 h post-infection. Mice were euthanized 24 h after infection, and the thigh tissues were aseptically collected, weighed, homogenized, serially diluted in PBS, and plated onto solid MCA. The CFU of CRAB 2210186 per thigh was calculated by plating dilutions of the thigh homogenates (0.25 g of thigh tissue in 10 mL sterile PBS) on agar plates and counting colonies.

The next data set relates to MRSA 2210187. Type of data set: cell-based, methicillin-resistant Staphylococcus aureus. As to conditions: 2210187. The method, then:
(§1) The MIC of all peptides was determined using the microdilution broth method in a 96-well plate. Peptides were dissolved in the DMSO with an initial concentration of 12,800 µg mL^−1. And cells of eight strains were separately suspended in the MHB at a density of approximately 10^5 CFU mL^−1. In the first column of the 96-well plate, 16 µL of peptide and 184 µL of MHB were added to each well to achieve a final concentration of 1,024 µg mL^−1. One-hundred microliters of MHB was added to each of the remaining wells. Then the first column of liquid was mixed well and diluted to the 12th column using the twofold dilution method. One-hundred microliters of prepared bacterial solution was added to all wells, and the 96-well plate was incubated at 37°C for 18–24 h. The MIC was defined as the concentration of the peptide in the well just preceding the first well showing visible turbidity. All experiments were performed in triplicate to ensure reliability.

The next data set concerns CRKP 2403276. Type of data set: cell-based, carbapenem-resistant K. pneumoniae. The method, then:
as §1

Another data set deals with CRPA 2403282. The class given is cell-based, carbapenem-resistant P. aeruginosa. On the procedure:
as §1

In data set [2] the test system is CRAB 2210186. As to conditions: 10% fetal bovine serum, room temperature, 1–6 h, then MIC assay, triplicate.
Description: For serum sensitivity experiments, the peptide to be tested was incubated in 10% fetal bovine serum at room temperature for 1–6 h. After deactivation, the MICs of peptides against CRAB 2210186 and MRSA 2210187 were measured using the MIC assay. All experiments were performed in triplicate to ensure reliability.
For another data set, the system named is HEK293 cells. The class given is cell-based. On the procedure: Cytotoxicity of AMPs was determined using the Cell Counting Kit-8. HEK293 cells, bought from Procell (Wuhan, China), were inoculated in 96-well flat-bottom plates according to 5,000 cells/well in cell culture medium. After 24-h incubation at 37°C with 5% CO2 in atmosphere, medium was replaced with fresh medium and incubated with antimicrobial peptide solutions at various concentrations for 48 h. Cell viability was monitored by adding CCK-8 solution and measuring OD450 after 4 h. Zero-well and control-well were set during this experimental process. All experiments were performed with three independent replicates. The cell survival rate was calculated by the following formula, and the CC50 value of each AMPs was calculated by online tools: https://www.aatbio.com/tools/ic50-calculator. (2) Cell survival rate (%)=OD(AMP)− OD(zero)/OD(control)− OD(zero)×100%

Another data set concerns E. coli ATCC25922. The class given is cell-based, Escherichia coli. The method, then: as §1
In another data set the test system is CRAB. Description: PI assay, cytoplasmic membrane integrity. To be noted: 1 × MIC, 10^8 CFU mL^−1. The class given is cell-based, carbapenem-resistant Acinetobacter baumannii. On the procedure:
PI (which is known to stain nuclear chromatin upon cell membrane disruption) assay was carried out to evaluate the ability of AMPs to disrupt the cytoplasmic membrane integrity ([63]). After CRAB was grown to the exponential phase, bacteria cells were harvested and washed three times in washing buffer of 5 mM glucose and 5 mM HEPES (1:1, pH = 7.2) and then re-adjusted to 10^8 CFU mL^−1 in the same buffer. Bacterial suspensions (150 µL/well) were loaded into black-walled, clear-bottom 96-well plates with lids. Following bacterial loading, 50 µL of 10 µM PI was introduced into each well, with 30 min pre-incubation CRAB. Post-incubation fluorescence signals were acquired using 535 nm excitation and 617 nm emission wavelengths. Compounds (10 µL) were then administered to achieve 1 × MIC/10 × MIC-equivalent final concentrations in the dye-loaded bacterial suspensions. Real-time fluorescence monitoring was performed with continuous acquisition during the first 10 min, followed by measurements at 10-min intervals. Negative controls received 10 µL sterile water in lieu of antimicrobial peptides while maintaining equivalent pre-incubation conditions. All experimental conditions were executed with three biological replicates.

As usually defined, the MIC is the lowest concentration that inhibits growth of the organism. Regarding WLKRILKWIGNKLKW [PL-15], the “reduction of bacterial load compared to the PBS control group” value in the data set with CRAB 2210186 [1] (24 h) is “two orders of magnitude”. Moreover, the “bacteria eradicated in the thigh tissue within 24 h” value in the data set on CRAB 2210186 [1] is “over 97%”. Besides, the minimal inhibitory concentration (MIC) was 2 µg/mL in the data set on MRSA 2210187, “lower than 11 µg mL^−1” against CRKP 2403276, 64 µg/mL against CRPA 2403282 and “lower than 11 µg mL^−1” in the data set on E. coli ATCC25922. Also, the “fold change in MIC after incubation in serum” value in the data set on CRAB 2210186 [2] is listed as “maximum twofold increase”. Also, the “log2CC50 (50% cell viability)” value in the data set on HEK293 cells is on record as not below 3. Moreover, the “PI fluorescence (cytoplasmic membrane integrity)” value with CRAB is “stronger fluorescence signal compared to polymyxin B and control”.

Source of the values: article PMC12502564, “Evaluation of LLM-generated peptide as foundation template for discovery of effective encrypted AMPs against clinical superbugs” (Microbiology Spectrum, 2025).
